From patent US9376425B2, “Heterocyclic compounds as MDM2 inhibitors for the treatment of cancer” (AMGEN INC., priority 2011, dated 2016)

The molecules below were run against T1, human MDM2 (GST-hMDM2 1-188), interaction with biotinylated-p53 (1-83) (Homo sapiens, UniProt Q00987) (assay: improved HTRF assay (HTRF2 assay), inhibition of HDM2-p53 interaction). Conditions: 0.2 nM GST-hMDM2, 0.5 nM biotinylated-p53, 100 mM KF.
T1 construct: Amino acid residues 1-188 of human MDM2 were expressed; made in house; host or cells: Escherichia coli
Assay type: binding
How it was run: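 Time-resolved fluorescence (HTRF) read after >4 h equilibration with SA-XLent/anti-GST cryptate/KF detection reagents. Reaction: compound plus GST-hMDM2 for 20 min at room temperature, then E. coli-expressed biotinylated p53 residues 1-83 for 60 min, 2% DMSO final. Inhibition expressed versus nutlin-3.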

T1 sequence (Q00987 1-188): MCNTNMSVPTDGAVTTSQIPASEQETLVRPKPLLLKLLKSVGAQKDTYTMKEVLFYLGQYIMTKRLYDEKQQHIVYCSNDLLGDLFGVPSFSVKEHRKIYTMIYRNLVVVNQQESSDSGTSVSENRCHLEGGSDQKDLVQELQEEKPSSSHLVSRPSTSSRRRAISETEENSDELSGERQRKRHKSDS

SMILES | IC50
CC[C@@H](CN(c1ccccc1Cl)S(=O)(=O)C1CC1)N1C(=O)[C@@H](CC(=O)O)O[C@H](c2cccc(Cl)c2)[C@H]1c1ccc(Cl)cc1 (single isomer, unassigned) [Example 264, 2-((2R,5R,6R)-6-(3-chlorophenyl)-5-(4-chlorophenyl)-4-((S)-1-(N-(2-chlorophenyl)cyclopropanesulfonamido)butan-2-yl)-3-oxomorpholin-2-yl)acetic acid or 2-((2S,5R,6R)-6-(3-chlorophenyl)-5-(4-chlorophenyl)-4-((S)-1-(N-(2-chlorophenyl)cyclopropanesulfonamido)butan-2-yl)-3-oxomorpholin-2-yl)acetic acid] | 19 nM
CC[C@@H](CN(c1ccccc1Cl)S(=O)(=O)C1CC1)N1C(=O)[C@@H](CC(=O)O)O[C@H](c2cccc(Cl)c2)[C@H]1c1ccc(Cl)cc1 (single isomer, unassigned) [Example 265, 2-((2R,5R,6R)-6-(3-chlorophenyl)-5-(4-chlorophenyl)-4-((S)-1-(N-(2-chlorophenyl)cyclopropanesulfonamido)butan-2-yl)-3-oxomorpholin-2-yl)acetic acid or 2-((2S,5R,6R)-6-(3-chlorophenyl)-5-(4-chlorophenyl)-4-((S)-1-(N-(2-chlorophenyl)cyclopropanesulfonamido)butan-2-yl)-3-oxomorpholin-2-yl)acetic acid] | 1 nM
CC(C)(C)S(=O)(=O)C[C@H](C1CCC1)N1C(=O)[C@@H](CC(=O)O)O[C@H](c2cccc(Cl)c2)[C@H]1c1ccc(Cl)cc1 (single isomer, unassigned) [Example 270, 2-((2R,5R,6R)-4-((S)-2-(tert-Butylsulfonyl)-1-cyclobutylethyl)-6-(3-chlorophenyl)-5-(4-chlorophenyl)-3-oxomorpholin-2-yl)acetic acid or 2-((2S,5R,6R)-4-((S)-2-(tert-butylsulfonyl)-1-cyclobutylethyl)-6-(3-chlorophenyl)-5-(4-chlorophenyl)-3-oxomorpholin-2-yl)acetic acid] | 2 nM
CC(C)(C)S(=O)(=O)C[C@H](C1CCC1)N1C(=O)[C@@H](CC(=O)O)O[C@H](c2cccc(Cl)c2)[C@H]1c1ccc(Cl)cc1 (single isomer, unassigned) [Example 271, 2-((2R,5R,6R)-4-((S)-2-(tert-Butylsulfonyl)-1-cyclobutylethyl)-6-(3-chlorophenyl)-5-(4-chlorophenyl)-3-oxomorpholin-2-yl)acetic acid or 2-((2S,5R,6R)-4-((S)-2-(tert-butylsulfonyl)-1-cyclobutylethyl)-6-(3-chlorophenyl)-5-(4-chlorophenyl)-3-oxomorpholin-2-yl)acetic acid] | 5 nM
CC(C)(C)S(=O)(=O)C[C@@H](C1CCC1)N1C(=O)[C@@H](CC(=O)O)O[C@H](c2cccc(Cl)c2)[C@H]1c1ccc(Cl)cc1 (single isomer, unassigned) [Example 272, 2-((2R,5R,6R)-4-((R)-2-(tert-Butylsulfonyl)-1-cyclobutylethyl)-6-(3-chlorophenyl)-5-(4-chlorophenyl)-3-oxomorpholin-2-yl)acetic acid or 2-((2S,5R,6R)-4-((R)-2-(tert-butylsulfonyl)-1-cyclobutylethyl)-6-(3-chlorophenyl)-5-(4-chlorophenyl)-3-oxomorpholin-2-yl)acetic acid] | 154 nM
CC(C)(C)S(=O)(=O)C[C@@H](C1CCC1)N1C(=O)[C@@H](CC(=O)O)O[C@H](c2cccc(Cl)c2)[C@H]1c1ccc(Cl)cc1 (single isomer, unassigned) [Example 273, 2-((2R,5R,6R)-4-((R)-2-(tert-Butylsulfonyl)-1-cyclobutylethyl)-6-(3-chlorophenyl)-5-(4-chlorophenyl)-3-oxomorpholin-2-yl)acetic acid or 2-((2S,5R,6R)-4-((R)-2-(tert-butylsulfonyl)-1-cyclobutylethyl)-6-(3-chlorophenyl)-5-(4-chlorophenyl)-3-oxomorpholin-2-yl)acetic acid] | 95 nM
O=C(O)C[C@H]1O[C@H](c2cccc(Cl)c2)[C@@H](c2ccc(Cl)cc2)N([C@H](CN(c2ccccc2F)S(=O)(=O)C2CC2)C(F)(F)F)C1=O (single isomer, unassigned) [Example 274] | 4 nM
O=C(O)C[C@H]1O[C@H](c2cccc(Cl)c2)[C@@H](c2ccc(Cl)cc2)N([C@H](CN(c2cc(F)ccc2F)S(=O)(=O)C2CC2)C2CC2)C1=O (single isomer, unassigned) [Example 275, 2-((2R,5R,6R)-6-(3-Chlorophenyl)-5-(4-chlorophenyl)-4-((S)-1-cyclopropyl-2-(N-(2,5-difluorophenyl)cyclopropanesulfonamido)ethyl)-3-oxomorpholin-2-yl)acetic acid or 2-((2S,5R,6R)-6-(3-chlorophenyl)-5-(4-chlorophenyl)-4-((S)-1-cyclopropyl-2-(N-(2,5-difluorophenyl)cyclopropanesulfonamido)ethyl)-3-oxomorpholin-2-yl)acetic acid] | < 1 nM
O=C(O)C[C@H]1O[C@H](c2cccc(Cl)c2)[C@@H](c2ccc(Cl)cc2)N([C@H](CN(c2cc(F)ccc2F)S(=O)(=O)C2CC2)C2CC2)C1=O (single isomer, unassigned) [Example 276, 2-((2R,5R,6R)-6-(3-Chlorophenyl)-5-(4-chlorophenyl)-4-((S)-1-cyclopropyl-2-(N-(2,5-difluorophenyl)cyclopropanesulfonamido)ethyl)-3-oxomorpholin-2-yl)acetic acid or 2-((2S,5R,6R)-6-(3-chlorophenyl)-5-(4-chlorophenyl)-4-((S)-1-cyclopropyl-2-(N-(2,5-difluorophenyl)cyclopropanesulfonamido)ethyl)-3-oxomorpholin-2-yl)acetic acid] | < 1 nM
O=C(O)C[C@H]1O[C@H](c2cccc(Cl)c2)[C@@H](c2ccc(Cl)cc2)N([C@H](CN(c2ccccc2F)S(=O)(=O)C2CC2)CC(F)(F)F)C1=O (single isomer, unassigned) [Example 277] | 106 nM
O=C(O)C[C@H]1O[C@H](c2cccc(Cl)c2)[C@@H](c2ccc(Cl)cc2)N([C@H](CN(c2ccccc2F)S(=O)(=O)C2CC2)CC(F)(F)F)C1=O (single isomer, unassigned) [Example 278] | 84 nM
O=C(O)C[C@H]1O[C@H](c2cccc(Cl)c2)[C@@H](c2ccc(Cl)cc2)N([C@H](CN(c2ccccc2F)S(=O)(=O)C2CC2)CC(F)(F)F)C1=O (single isomer, unassigned) [Example 279] | 39 nM
CC[C@@H](CS(=O)(=O)[C@H](C)C(C)C)N1C(=O)[C@H](CC(=O)O)O[C@H](c2cccc(Cl)c2)[C@H]1c1ccc(Cl)cc1 (single isomer, unassigned) [Example 282] | 2 nM
CC[C@@H](CS(=O)(=O)[C@H](C)C(C)C)N1C(=O)[C@H](CC(=O)O)O[C@H](c2cccc(Cl)c2)[C@H]1c1ccc(Cl)cc1 (single isomer, unassigned) [Example 283] | 3 nM
CC[C@@H](CS(=O)(=O)[C@H](C)C(C)C)N1C(=O)[C@H](CC(=O)O)O[C@H](c2cccc(Cl)c2)[C@H]1c1ccc(Cl)cc1 (single isomer, unassigned) [Example 284] | 5 nM
CC[C@@H](CS(=O)(=O)[C@H](C)C(C)C)N1C(=O)[C@H](CC(=O)O)O[C@H](c2cccc(Cl)c2)[C@H]1c1ccc(Cl)cc1 (single isomer, unassigned) [Example 285] | 9 nM
O=C(O)C[C@H]1O[C@H](c2cccc(Cl)c2)[C@@H](c2ccc(Cl)cc2)N([C@H](CS(=O)(=O)c2ccncc2)C2CC2)C1=O (single isomer, unassigned) [Example 286, 2-((2R,5R,6R)-6-(3-Chlorophenyl)-5-(4-chlorophenyl)-4-((S)-1-cyclopropyl-2-(pyridin-4-ylsulfonyl)ethyl)-3-oxomorpholin-2-yl)acetic acid or 2-((2S,5R,6R)-6-(3-chlorophenyl)-5-(4-chlorophenyl)-4-((S)-1-cyclopropyl-2-(pyridin-4-ylsulfonyl)ethyl)-3-oxomorpholin-2-yl)acetic acid] | 2 nM
O=C(O)C[C@H]1O[C@H](c2cccc(Cl)c2)[C@@H](c2ccc(Cl)cc2)N([C@H](CS(=O)(=O)c2ccncc2)C2CC2)C1=O (single isomer, unassigned) [Example 287, 2-((2R,5R,6R)-6-(3-Chlorophenyl)-5-(4-chlorophenyl)-4-((S)-1-cyclopropyl-2-(pyridin-4-ylsulfonyl)ethyl)-3-oxomorpholin-2-yl)acetic acid or 2-((2S,5R,6R)-6-(3-chlorophenyl)-5-(4-chlorophenyl)-4-((S)-1-cyclopropyl-2-(pyridin-4-ylsulfonyl)ethyl)-3-oxomorpholin-2-yl)acetic acid] | 5 nM
CC(C)(O)CS(=O)(=O)C[C@H](C1CC1)N1C(=O)[C@@H](CC(=O)O)O[C@H](c2cccc(Cl)c2)[C@H]1c1ccc(Cl)cc1 (single isomer, unassigned) [Example 288, 2-((2R,5R,6R)-6-(3-Chlorophenyl)-5-(4-chlorophenyl)-4-((S)-1-cyclopropyl-2-((2-hydroxy-2-methylpropyl)sulfonyl)ethyl)-3-oxomorpholin-2-yl)acetic acid or 2-((2S,5R,6R)-6-(3-chlorophenyl)-5-(4-chlorophenyl)-4-((S)-1-cyclopropyl-2-((2-hydroxy-2-methylpropyl)sulfonyl)ethyl)-3-oxomorpholin-2-yl)acetic acid] | < 1 nM
CC(C)(O)CS(=O)(=O)C[C@H](C1CC1)N1C(=O)[C@@H](CC(=O)O)O[C@H](c2cccc(Cl)c2)[C@H]1c1ccc(Cl)cc1 (single isomer, unassigned) [Example 289, 2-((2R,5R,6R)-6-(3-Chlorophenyl)-5-(4-chlorophenyl)-4-((S)-1-cyclopropyl-2-((2-hydroxy-2-methylpropyl)sulfonyl)ethyl)-3-oxomorpholin-2-yl)acetic acid or 2-((2S,5R,6R)-6-(3-chlorophenyl)-5-(4-chlorophenyl)-4-((S)-1-cyclopropyl-2-((2-hydroxy-2-methylpropyl)sulfonyl)ethyl)-3-oxomorpholin-2-yl)acetic acid] | 2 nM
